Patent US10759740B2, “Antibacterial agents” (Rutgers, The State University of New Jersey, priority 2016, dated 2020)

Legend:
[1] = system: Pseudomonas aeruginosa ATCC 15442; assay: Broth microdilution assay (MIC); assay type: cell-based; conditions: BHI broth, 37° C., 24 h, no visible growth
Method: (§1) From the frozen stock (−80° C.), bacteria were inoculated into brain-hear infusion (BHI) agar (Becton Dickinson, Franklin Lakes, N.J.) and propagated under aerobic conditions at 37° C. for 24 h. After the incubation, one colony of each bacterial strain was transferred to BHI broth (Becton Dickinson, Franklin Lakes, N.J.) and sub-cultured at least twice into BHI before being used in experiments.
(§2) The minimal inhibitory concentration (MIC) of CAms were identified using a broth microdilution assay modified from previous studies. Briefly, the stock solutions of CAMs were first prepared by dissolving in double-distilled water (ddH2O) and then diluted in BHI broth at pre-determined concentrations. Further serial 2-fold dilutions were performed in a 96-well microplate (Becton Dickinson, Franklin Lakes, N.J.) with BHI broth. The inoculum concentration was adjusted to 5×10^6 CFU/mL with ultraviolet-visible (UV-vis) spectroscopy at 600 nm. An equal volume (100 μL) of bacterial suspension was added to each microplate well with a final volume of 200 μL. Plates were incubated at 37° C. for 24 h under aerobic conditions. The lowest CAm concentration that yielded no visible growth was recorded as the MIC. Cetyltrimethylammonium bromide (CTAB), a cationic amphiphile, served as a positive control that could mimic the proposed bactericidal mechanism of the newly synthesized tartaric acid-based compounds.
(§3) CAms were evaluated against five selected pathogenic microorganisms, including Gram-positive bacteria (i.e., S. aureus and L. monocytogenes) and Gram-negative bacteria (i.e., E. coli, S. typhimurium, and P. aeruginosa), using a turbidity-based microdilution method. MICs were taken as the lowest concentrations that inhibited the visible bacterial growth. […] The higher MIC values for the Gram-negative bacteria could be attributed to the presence of an additional lipopolysaccharide layer, which forms a hydrophilic barrier that could prevent penetration of the highly hydrophobic CAms.

[2] = system: Staphylococcus aureus ATCC 13565; assay: Broth microdilution assay (MIC); assay type: cell-based; conditions: BHI broth, 37° C., 24 h, no visible growth
Method: as §1, §2, §3

Escherichia coli O157:H7 = assay: Broth microdilution assay (MIC); assay type: cell-based; conditions: BHI broth, 37° C., 24 h, no visible growth
Method: as §1, §2, §3

[3] = system: Listeria monocytogenes Scott A; assay: Broth microdilution assay (MIC); assay type: cell-based; conditions: BHI broth, 37° C., 24 h, no visible growth
Method: as §1, §2, §3

L. gasseri biofilm = assay: Minimum biofilm bactericidal concentration (MBC-B); assay type: cell-based, Lactobacillus gasseri; conditions: pre-formed biofilm, ≥3 log reduction
Method: G. vaginalis ATCC 14019 strain was grown overnight in Brain Heart Infusion broth (Difco, Sparks, Md.) supplemented with 3% horse serum (sBHI) (JRH Biosciences, KS), while BHI supplemented with 1% glucose (BHIG) was used for biofilm formation assays. Each experiment using G. vaginalis was performed anaerobically (10% hydrogen, 5% carbon dioxide, and 85% nitrogen) within anaerobic glove boxes (Coy Laboratory Products, Inc., Grass Lake, Mich., USA). Three species of vaginal Lactobacillus were used in this study to evaluate the possible harmful effects of CAms on beneficial bacteria: Lactobacillus plantarum ATCC 39268, Lactobacillus rhamnosus 160 (provided by Dr. Aroutcheva, Rush University Medical Center) and Lactobacillus gasseri ATCC 33323; all were grown for 18-24 h in DeMan, Rogosa and Sharpe broth (MRS Difco B D, Franklin Lakes, N.J., USA) under aerobic conditions at 37° C. For lactobacilli biofilm formation, MRS broth supplemented with 1% glucose and 2% sucrose (Fisher Scientific, Waltham, Mass., USA) was utilized.
This assay was performed according to Algburi et al. (Algburi et al., 2015. Path Dis 73(5)) with minor modifications: the overnight-grown G. vaginalis was diluted to approximately 10^7 CFU/ml. For the biofilm formation assay, aliquots of 200 μl were added into a 96-well tissue culture microplate, sealed by amplification tape (Nalge Nunc International, Rochester, N.Y., USA) and incubated for 24-36 h at 37° C. After incubation, the planktonic cells were removed by gently washing the biofilm twice with 200 μl of fresh broth. The biofilm was then treated with 200 μl of a predetermined concentration of the tested compound. The microplate was incubated for 24 h at 37° C. under anaerobic conditions. After incubation, the antimicrobials (supernatant) were discarded and the biofilm was washed twice with fresh BHIG broth. The biofilm was then disrupted by vigorous pipetting, in order to determine the number of biofilm-associated cells using the spot plate method.

[4] = system: L. monocytogenes pre-formed biofilms; assay: MBC-B against pre-formed biofilms (Example 2); assay type: cell-based; conditions: pre-formed biofilm, ≥3 log reduction in viable cells
Method: (§4) The minimum biofilm bactericidal concentrations (MBC-Bs) of the cationic amphiphiles against pre-formed biofilms of L. monocytogenes and G. vaginalis were identified. The biofilms of the two targeted microorganisms were grown in 96-well plates according to established methodology for Gram-positive and Gram-variable bacteria (Tabak et al., FEMS microbiology letters. 2009; 301(1):69-76). To identify the reduction in the number of biofilm-associated viable cells treated with different concentrations of cationic amphiphiles, the spot plate method was used (Turovskiy et al., Infectious diseases in obstetrics and gynecology. 2012; 2012:284762, 9 pages). In brief, biofilms were washed, disrupted, diluted 10^1-10^8 times with fresh medium and the samples plated on suitable solid medium.

[5] = system: G. vaginalis pre-formed biofilms; assay: MBC-B against pre-formed biofilms (Example 2); assay type: cell-based; conditions: pre-formed biofilm, ≥3 log reduction in viable cells
Method: as §4

[6] = system: Human foreskin fibroblast (HFF) cells; assay type: cell-based; conditions: for IC50: Table 2 of Example 1, cytotoxicity IC50 of CAms
Method: HFFs were cultured in DMEM supplemented with 10% fetal bovine serum, 1% penicillin/streptomycin and plated at a concentration of 10,000 cells/well in 96-well plate. Plates were incubated at 37° C. and 5% CO2 for 24 h to allow cell attachment prior to use.
CAMs were tested for cytotoxicity against HFFs using a tetrazolium-based colorimetric assay (MTT). CAMs were first dissolved in ddH2O and then diluted in cell medium (DMEM supplemented with 1% penicillin/streptomycin) to reach concentrations of 15.6, 3.9, and 0.95 μg/mL. 100 μL cell media containing CAMs were then added to allocated wells in a 96-well plate. Cells treated with only 1% Triton X-100 and cell medium were used as positive and negative controls, respectively. After 24 h incubation, the medium was removed and replaced with fresh medium. 20 μL of MTT reagent (12 mM in PBS) was then added to each well and further incubated for 4 h at 37° C. Formazan crystals were subsequently dissolved in 100 μL acidified SDS solution at 37° C. for 4 h. […] The following is used to calculate the percent of cell viability of HFFs: […]

| SMILES | MIC P. aeruginosa (G−) [1] [mg/L] | MIC S. aureus (G+) [2] [mg/L] | MIC E. coli (G−) (Escherichia coli O157:H7) [mg/L] | MIC L. monocytogenes (G+) [3] [mg/L] | MBC-B L. gasseri (L. gasseri biofilm) [µM] | MBC-B, L. monocytogenes [4] | MBC-B G. vaginalis [5] | cytotoxicity to human fibroblasts (MTT cell viability) [6] | IC50 [6] [mg/L] |
| --- | --- | --- | --- | --- | --- | --- | --- | --- | --- |
| CCCCCCCCCCOC(C(=O)NCCN)C(OCCCCCCCCCC)C(=O)NCCN.Cl.Cl (stereo not drawn) [5b] | 3.9 | 0.95 | 3.9 | 0.95 | >850 | approximately 250 μg/mL | approximately 31.25 μg/mL | did not produce pronounced cytotoxicity | 5.6 |
| CCCCCCCC(=O)OC(C(=O)NCCN)C(OC(=O)CCCCCCC)C(=O)NCCN.Cl.Cl (stereo not drawn) [8a] | 31.2 | 31.2 | 62.5 | 31.2 | >890 |  |  |  | 55.6 |
| CCCCCCCCCC(=O)OC(C(=O)NCCN)C(OC(=O)CCCCCCCCC)C(=O)NCCN.Cl.Cl (stereo not drawn) [8b] | 3.9 | 1.9 | 3.9 | 1.9 | 810 | approximately 250 μg/mL | approximately 31.25 μg/mL | did not produce pronounced cytotoxicity | 13.9 |
